Measurements from patent publication EP0677522A1, “8-METHOXYQUINOLONECARBOXYLIC ACID DERIVATIVE” (priority 1992, dated 1994).
Converted amounts (≈) assume the structure as drawn.

How the values were obtained:
[1] = tested on: Enterobacter cloacae IFO 12937; assay: In vitro antibacterial activity (MIC), Japan Society of Chemotherapy Standard; assay type: cell-based; conditions: IFO12937, inoculated cells 10⁶ cells/ml
Protocol: (§1) The in vitro antibacterial activity (minimum inhibitory concentration, MIC, µg/ml) of the test compounds was determined according to Japan Society of Chemotherapy Standard [Chemotherapy, vol. 29, pp 76-79 (1981)].
(§2) Inoculated cells were 10⁶ cells/ml and the strain with * was incubated in a medium supplemented with 10% horse blood. The mark "1)" means quinolone resistant MRSA and "2)" means quinolone resistant bacteria.

P.aeruginosa U-31 = assay: as above; assay type: cell-based; conditions: Pseudomonas aeruginosa, U31; inoculated cells 10⁶ cells/ml
Protocol: as §1, §2

P. mirabilis IFO 3849 = assay: as above; assay type: cell-based; conditions: Proteus mirabilis, IFO3849; inoculated cells 10⁶ cells/ml
Protocol: as §1, §2

[2] = tested on: Escherichia coli NIHJ JC-2; assay: as above; assay type: cell-based; conditions: NIHJJC2, inoculated cells 10⁶ cells/ml
Protocol: as §1, §2

Shigella flexneri EW-10 = assay: as above; assay type: cell-based; conditions: EW10, inoculated cells 10⁶ cells/ml
Protocol: as §1, §2

K.pneumoniae DT-S = assay: as above; assay type: cell-based; conditions: Klebsiella pneumoniae; inoculated cells 10⁶ cells/ml
Protocol: as §1, §2

[3] = tested on: Staphylococcus aureus FDA 209P; assay: as above; assay type: cell-based; conditions: FDA209P, inoculated cells 10⁶ cells/ml
Protocol: as §1, §2

[4] = tested on: Enterococcus faecalis LS-101; assay: as above; assay type: cell-based; conditions: LS101, inoculated cells 10⁶ cells/ml
Protocol: as §1, §2

[5] = tested on: Proteus vulgaris IFO 3988; assay: as above; assay type: cell-based; conditions: IFO3988, inoculated cells 10⁶ cells/ml
Protocol: as §1, §2

[6] = tested on: S. epidermidis ATCC 12228; assay: as above; assay type: cell-based; conditions: Staphylococcus epidermidis, ATCC12228; inoculated cells 10⁶ cells/ml
Protocol: as §1, §2

[7] = tested on: Serratia marcescens IFO 12648; assay: as above; assay type: cell-based; conditions: IFO12648, inoculated cells 10⁶ cells/ml
Protocol: as §1, §2

M.catarrhalis ATCC 25238 = assay: as above; assay type: cell-based; conditions: Moraxella catarrhalis, ATCC25238; inoculated cells 10⁶ cells/ml; medium supplemented with 10% horse blood
Protocol: as §1, §2

[8] = tested on: Citrobacter freundii IFO 12681; assay: as above; assay type: cell-based; conditions: IFO12681, inoculated cells 10⁶ cells/ml
Protocol: as §1, §2

E. faecium EFMY-28 = assay: as above; assay type: cell-based; conditions: Enterococcus faecium, EFMY28; inoculated cells 10⁶ cells/ml
Protocol: as §1, §2

[9] = tested on: Streptococcus pyogenes C-203; assay: as above; assay type: cell-based; conditions: C203, inoculated cells 10⁶ cells/ml, medium supplemented with 10% horse blood
Protocol: as §1, §2

[10] = tested on: A.calcoaceticus IFO 13006; assay: as above; assay type: cell-based; conditions: Acinetobacter calcoaceticus, IFO13006; inoculated cells 10⁶ cells/ml
Protocol: as §1, §2

S. aureus No.88 = assay: as above; assay type: cell-based; conditions: Staphylococcus aureus; quinolone resistant MRSA; inoculated cells 10⁶ cells/ml
Protocol: as §1, §2

E. avium EAY-30 = assay: as above; assay type: cell-based; conditions: Enterococcus avium, EAY30, inoculated cells 10⁶ cells/ml
Protocol: as §1, §2

S. pneumoniae Type-III = assay: as above; assay type: cell-based; conditions: Streptococcus pneumoniae; inoculated cells 10⁶ cells/ml; medium supplemented with 10% horse blood
Protocol: as §1, §2

L.monocytogenes VTU-206 = assay: as above; assay type: cell-based; conditions: Listeria monocytogenes, VTU206; inoculated cells 10⁶ cells/ml; medium supplemented with 10% horse blood
Protocol: as §1, §2

male ICR mice = assay: Preliminary micronucleus test; assay type: in vivo; conditions: for Emergence of micronucleus in polychromatic cells compared with the control group: after 24 hours, Example 5: in the dose of 1,000 mg/kg or above
Protocol: A preliminary micronucleus test was performed by oral administration to male ICR mice. […]

E. coli KC-14 [11] = assay: MIC of the infectious bacteria used for experimental infection; assay type: cell-based; conditions: Escherichia coli, KC14; infectious strain of the mouse protection test
Protocol: as §1
(§3) Experimental infection was caused by intraperitoneal inoculation of respective bacteria to male mice. One hour after the inoculation, a test compound was orally administered to the mice. The therapeutic effect of each test compound was evaluated by reference to the 50% effective dose (ED₅₀) which was based on the survival ratio at 7 days after the administration according to the probit method [Proc. Soc. Exp. Med., Vol. 57, p 261-264 (1944)]. The minimum inhibitory concentration (MIC) of the infectious bacteria used was also determined. […]

S. aureus Smith [12] = assay: as above; assay type: cell-based; conditions: Staphylococcus aureus; infectious strain of the mouse protection test
Protocol: as §1, §3

S. aureus MRSA Y-238 [13] = assay: as above; assay type: cell-based; conditions: Staphylococcus aureus, infectious strain of the mouse protection test
Protocol: as §1, §3

E. coli KC-14 [14] = assay: Protection of mice from experimental infection; assay type: in vivo; conditions: Table 3-1: male mice; intraperitoneal inoculation 5.0×10⁶ cells/mouse (744×LD₅₀); oral administration one hour after inoculation; survival ratio at 7 days
Protocol: as §3

S. aureus Smith [15] = assay: Protection of mice from experimental infection; assay type: in vivo; conditions: male mice; intraperitoneal inoculation 2.8×10⁶ cells/mouse (123×LD₅₀); oral administration one hour after inoculation; survival ratio at 7 days, probit method
Protocol: as §3

S. aureus MRSA Y-238 [16] = assay: Protection of mice from experimental infection; assay type: in vivo; conditions: Table 3-1: male mice; intraperitoneal inoculation 7.5×10⁶ cells/mouse (185×LD₅₀); oral administration one hour after inoculation; survival ratio at 7 days
Protocol: as §3

[17] = tested on: Ureaplasma urealyticum ATCC 27618; assay: Antibacterial effect against specific bacteria (MIC); assay type: cell-based; conditions: ATCC27618, same manner as Experimental Example 1
Protocol: as §1
(§4) In the same manner as in Experimental Example 1, the antibacterial effect against specific bacteria such as Chlamydia, Mycoplasma and acid-fast bacteria and anaerobic bacteria was determined.

[18] = tested on: Mycobacterium smegmatis IFO 13167; assay: as above; assay type: cell-based; conditions: Mycolicibacterium smegmatis, IFO13167; same manner as Experimental Example 1
Protocol: as §1, §4

[19] = tested on: Bacteroides fragilis GAI 5560; assay: as above; assay type: cell-based; conditions: GAI5560, same manner as Experimental Example 1
Protocol: as §1, §4

[20] = tested on: Mycoplasma pneumoniae ATCC 29343; assay: as above; assay type: cell-based; conditions: ATCC29343, same manner as Experimental Example 1
Protocol: as §1, §4

[21] = tested on: Chlamydia trachomatis D/UW-3Cx; assay: as above; assay type: cell-based; conditions: same manner as Experimental Example 1
Protocol: as §1, §4

| Structure (SMILES) | MIC [1] [µg/mL] | MIC (P.aeruginosa U-31) [µg/mL] | MIC (P. mirabilis IFO 3849) [µg/mL] | MIC [2] [µg/mL] | MIC (Shigella flexneri EW-10) [µg/mL] | MIC (K.pneumoniae DT-S) [µg/mL] | MIC [3] [ng/mL] | MIC [4] [µg/mL] | MIC [5] [µg/mL] | MIC [6] [µg/mL] | MIC [7] [µg/mL] | MIC (M.catarrhalis ATCC 25238) [µg/mL] | MIC [8] [µg/mL] | MIC (E. faecium EFMY-28) [µg/mL] | MIC [9] [µg/mL] | MIC [10] [µg/mL] | MIC (S. aureus No.88) [µg/mL] | MIC (E. avium EAY-30) [µg/mL] | MIC (S. pneumoniae Type-III) [µg/mL] | MIC (L.monocytogenes VTU-206) [µg/mL] | also measured |
| --- | --- | --- | --- | --- | --- | --- | --- | --- | --- | --- | --- | --- | --- | --- | --- | --- | --- | --- | --- | --- | --- |
| COc1c(N2CCC(N)(CN)CC2)c(F)cc2c(=O)c(C(=O)O)cn(C3CC3)c12 [Comp. Ex. 1, 7-(4-amino-4-aminomethylpiperidin-1-yl)-1-cyclopropyl-6-fluoro-1,4-dihydro-8-methoxy-4-oxo-3-quinolinecarboxylic acid, reference compound] | 12.5 (≈ 30.9 µM) | 12.5 (≈ 30.9 µM) | 25 (≈ 61.8 µM) | 1.56 (≈ 3.86 µM) | 0.39 (≈ 0.964 µM) | 6.25 (≈ 15.5 µM) | 100 (≈ 0.247 µM) | 1.56 (≈ 3.86 µM) | 25 (≈ 61.8 µM) | 0.78 (≈ 1.93 µM) | 6.25 (≈ 15.5 µM) | – | – | – | – | – | – | – | – | – | – |
| COc1c(N2CCC(N)(CF)C2)c(F)cc2c(=O)c(C(=O)O)cn(C3CC3)c12 (stereo not shown) [Example 1, 7-(3-amino-3-fluoromethylpyrrolidin-1-yl)-1-cyclopropyl-6-fluoro-1,4-dihydro-8-methoxy-4-oxo-3-quinolinecarboxylic acid] | 0.2 (≈ 0.508 µM) | 0.39 (≈ 0.991 µM) | 0.39 (≈ 0.991 µM) | 0.025 (≈ 0.0636 µM) | ≤ 0.006 | 0.025 (≈ 0.0636 µM) | ≤ 6 | 0.012 (≈ 0.0305 µM) | 0.2 (≈ 0.508 µM) | 0.012 (≈ 0.0305 µM) | 0.2 (≈ 0.508 µM) | 0.012 (≈ 0.0305 µM) | 0.05 (≈ 0.127 µM) | 0.2 (≈ 0.508 µM) | 0.05 (≈ 0.127 µM) | 0.05 (≈ 0.127 µM) | 0.39 (≈ 0.991 µM) | 0.1 (≈ 0.254 µM) | 0.012 (≈ 0.0305 µM) | 0.1 (≈ 0.254 µM) | – |
| CO[C@@]12[C@H](COC(N)=O)C3=C(C(=O)C(C)=C(N)C3=O)N1C[C@@H]1N[C@@H]12 [MMC, mitomycin C, reference compound] | – | – | – | – | – | – | – | – | – | – | – | – | – | – | – | – | – | – | – | – | Emergence of micronucleus (%) (male ICR mice; dose 1 mg/kg (positive control)): 2.36±1.52 % |
| COc1c(N2CC[C@](N)(CF)C2)c(F)cc2c(=O)c(C(=O)O)cn(C3CC3)c12 [Example 5, (R)-7-(3-amino-3-fluoromethylpyrrolidin-1-yl)-1-cyclopropyl-6-fluoro-1,4-dihydro-8-methoxy-4-oxo-3-quinolinecarboxylic acid] | 0.2 (≈ 0.508 µM) | 0.39 (≈ 0.991 µM) | 0.2 (≈ 0.508 µM) | 0.025 (≈ 0.0636 µM) | 0.012 (≈ 0.0305 µM) | 0.05 (≈ 0.127 µM) | ≤ 6 | 0.012 (≈ 0.0305 µM) | 0.39 (≈ 0.991 µM) | 0.012 (≈ 0.0305 µM) | 0.2 (≈ 0.508 µM) | 0.012 (≈ 0.0305 µM) | 0.05 (≈ 0.127 µM) | 0.1 (≈ 0.254 µM) | 0.05 (≈ 0.127 µM) | 0.025 (≈ 0.0636 µM) | 0.78 (≈ 1.98 µM) | 0.1 (≈ 0.254 µM) | 0.012 (≈ 0.0305 µM) | 0.1 (≈ 0.254 µM) | Emergence of micronucleus in polychromatic cells compared with the control group (male ICR mice; oral): showed significant increase in emergence frequency of micronucleus; Emergence of micronucleus (%) (male ICR mice; oral, dose 500 mg/kg): 0.45±0.28 %; Emergence of micronucleus (%) (male ICR mice; oral, dose 1000 mg/kg): 1.45±1.45 %; Emergence of micronucleus (%) (male ICR mice; oral, dose 2000 mg/kg): 2.38±0.85 % |
| COc1c(N2CC[C@@](N)(CF)C2)c(F)cc2c(=O)c(C(=O)O)cn(C3CC3)c12 [Example 6, (S)-7-(3-amino-3-fluoromethylpyrrolidin-1-yl)-1-cyclopropyl-6-fluoro-1,4-dihydro-8-methoxy-4-oxo-3-quinoline carboxylic acid] | 0.2 (≈ 0.508 µM) | 0.39 (≈ 0.991 µM) | 0.2 (≈ 0.508 µM) | 0.025 (≈ 0.0636 µM) | 0.012 (≈ 0.0305 µM) | 0.05 (≈ 0.127 µM) | ≤ 6 | 0.012 (≈ 0.0305 µM) | 0.39 (≈ 0.991 µM) | ≤ 0.006 | 0.2 (≈ 0.508 µM) | 0.012 (≈ 0.0305 µM) | 0.1 (≈ 0.254 µM) | 0.2 (≈ 0.508 µM) | 0.05 (≈ 0.127 µM) | 0.025 (≈ 0.0636 µM) | 0.39 (≈ 0.991 µM) | 0.1 (≈ 0.254 µM) | 0.025 (≈ 0.0636 µM) | 0.1 (≈ 0.254 µM) | MIC (E. coli KC-14 [11]): 0.012 µg/mL; MIC (S. aureus Smith [12]): ≤ 6 ng/mL; MIC (S. aureus MRSA Y-238 [13]): 0.39 µg/mL; Emergence of micronucleus in polychromatic cells compared with the control group (male ICR mice; oral): did not show significant difference in emergence of micronucleus; Emergence of micronucleus (%) (male ICR mice; oral, dose 500 mg/kg): 0.16±0.16%; Emergence of micronucleus (%) (male ICR mice; oral, dose 1000 mg/kg): 0.16±0.11%; Emergence of micronucleus (%) (male ICR mice; oral, dose 2000 mg/kg): 0.26±0.04%; ED₅₀ (mg/mouse) (95% confidence limit) (E. coli KC-14 [14]): 0.011(0.008-0.015) mg/mouse; ED₅₀ (mg/mouse) (95% confidence limit) (S. aureus Smith [15]): 0.036(0.025-0.052) mg/mouse; ED₅₀ (mg/mouse) (95% confidence limit) (S. aureus MRSA Y-238 [16]): 1.54(1.103-2.151) mg/mouse; MIC [17]: 0.1 µg/mL (≈ 0.254 µM); MIC [18]: 0.1 µg/mL (≈ 0.254 µM); MIC [19]: 0.05 µg/mL (≈ 0.127 µM); MIC [20]: 0.025 µg/mL (≈ 0.0636 µM); MIC [21]: 0.012 µg/mL (≈ 0.0305 µM) |
